Source: US20070185149A1, “Novel amido-substituted hydroxy-6-phenylphenanthridines and their use as pde4 inhibtors” (ALTANA PHARMA AG, priority 2004, published 2007)

Target: T1, PDE4B2 (Homo sapiens, UniProt Q07343)
T1 construct: made in house; host or cells: SF21 insect cells (baculovirus; virus prepared in SF9 cells)
Assay: Inhibition of PDE4 activity: PDE4B2 [3H]cAMP SPA enzyme assay
Type: biochemical
Conditions: recombinant PDE4B2 (SF21 cell supernatant), modified SPA test, 0.5 μM cAMP, 15 min at 37° C.; read-out: Inhibition of the PDE4 activity, −log IC50 (converted)
Method: The PDE4B2 (GB no. M97515) was a gift of Prof. M. Conti (Stanford University, USA). It was amplified from the original plasmid (pCMV5) via PCR with primers Rb9 (5′-[…]-3′) and Rb10 (5′-[…]-3′) and cloned into the pCR-Bac vector (Invitrogen, Groningen, NL).
The recombinant baculovirus was prepared by means of homologous recombination in SF9 insect cells.
The expression plasmid was cotransfected with Bac-N-Blue (Invitrogen, Groningen, NL) or Baculo-Gold DNA (Pharmingen, Hamburg) using a standard protocol (Pharmingen, Hamburg). Wt virus-free recombinant virus supernatant was selected using plaque assay methods. After that, high-titre virus supernatant was prepared by amplifying 3 times. PDE was expressed in SF21 cells by infecting 2×10^6 cells/ml with an MOI (multiplicity of infection) between 1 and 10 in serum-free SF900 medium (Life Technologies, Paisley, UK). The cells were cultured at 28° C. for 48-72 hours, after which they were pelleted for 5-10 min at 1000 g and 4° C.
The SF21 insect cells were resuspended, at a concentration of approx. 10^7 cells/ml, in ice-cold (4° C.) homogenization buffer (20 mM Tris, pH 8.2, containing the following additions: 140 mM NaCl, 3.8 mM KCl, 1 mM EGTA, 1 mM MgCl2, 10 mM β-mercaptoethanol, 2 mM benzamidine, 0.4 mM Pefablock, 10 μM leupeptin, 10 μM pepstatin A, 5 μM trypsin inhibitor) and disrupted by ultrasonication. The homogenate was then centrifuged for 10 min at 1000×g and the supernatant was stored at −80° C. until subsequent use (see below). The protein content was determined by the Bradford method (BioRad, Munich) using BSA as the standard.
PDE4B2 activity is inhibited by the said compounds in a modified SPA (scintillation proximity assay) test, supplied by Amersham Biosciences (see procedural instructions “phosphodiesterase [3H]cAMP SPA enzyme assay, code TRKQ 7090”), carried out in 96-well microtitre plates (MTP's). The test volume is 100 μl and contains 20 mM Tris buffer (pH 7.4), 0.1 mg of BSA (bovine serum albumin)/ml, 5 mM Mg^2+, 0.5 μM cAMP (including about 50,000 cpm of [3H]cAMP), 1 μl of the respective substance dilution in DMSO and sufficient recombinant PDE (1000×g supernatant, see above) to ensure that 10-20% of the cAMP is converted under the said experimental conditions. […] After a preincubation of 5 min at 37° C., the reaction is started by adding the substrate (cAMP) and the assay is incubated for a further 15 min; after that, it is stopped by adding SPA beads (50 μl). In accordance with the manufacturer's instructions, the SPA beads had previously been resuspended in water, but were then diluted 1:3 (v/v) in water; the diluted solution also contains 3 mM IBMX to ensure a complete PDE activity stop. After the beads have been sedimented (>30 min), the MTP's are analyzed in commercially available […]. The corresponding IC50 values of the compounds for the inhibition of PDE activity are determined from the concentration-effect curves by means of non-linear regression.

T1 sequence (Q07343 1-564 isoform Q07343-2): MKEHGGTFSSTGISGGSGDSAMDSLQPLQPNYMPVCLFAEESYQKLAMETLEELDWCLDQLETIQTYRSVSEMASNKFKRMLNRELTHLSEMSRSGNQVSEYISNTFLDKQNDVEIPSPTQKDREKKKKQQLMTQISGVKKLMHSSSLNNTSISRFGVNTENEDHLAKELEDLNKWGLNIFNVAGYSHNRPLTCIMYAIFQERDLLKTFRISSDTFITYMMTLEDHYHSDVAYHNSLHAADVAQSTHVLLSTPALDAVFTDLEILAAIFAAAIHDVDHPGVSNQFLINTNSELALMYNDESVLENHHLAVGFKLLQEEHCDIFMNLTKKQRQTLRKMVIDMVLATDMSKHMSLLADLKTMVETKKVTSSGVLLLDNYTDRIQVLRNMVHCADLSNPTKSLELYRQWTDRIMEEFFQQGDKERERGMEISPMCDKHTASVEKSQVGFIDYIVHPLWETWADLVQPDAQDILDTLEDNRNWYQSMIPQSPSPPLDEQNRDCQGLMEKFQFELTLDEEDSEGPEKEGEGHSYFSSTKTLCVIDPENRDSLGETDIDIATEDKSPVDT

Row | IC50 | Structure (SMILES)
1 | 0.955 to 8.71 nM | COc1cc2c(cc1OC(F)F)[C@H]1C[C@H](O)CC[C@H]1N=C2c1ccc(C(=O)NCCCN2CCOCC2)cc1 (racemic) [Compound 28, 4-[(2RS,4aRS,10bRS)-9-(1,1-Difluoro-methoxy)-2-hydroxy-8-methoxy-1,2,3,4,4a,10b-hexahydro-phenanthridin-6-yl]-N-(3-morpholin-4-yl-propyl)-benzamide]
2 | 0.955 to 8.71 nM | COc1cc2c(cc1OC)[C@H]1C[C@H](O)CC[C@H]1N=C2c1ccc(C(=O)NCCc2cccnc2)cc1 (racemic) [Compound 21, 4-((2RS,4aRS,10bRS)-2-Hydroxy-8,9-dimethoxy-1,2,3,4,4a,10b-hexahydro-phenanthridin-6-yl)-N-(2-pyridin-3-yl-ethyl)-benzamide]
3 | 0.955 to 8.71 nM | COc1cc2c(cc1OC)[C@H]1C[C@H](O)CC[C@H]1N=C2c1ccc(C(=O)N2CCN(CC(=O)Nc3ccccn3)CC2)cc1 (racemic) [Compound 15, 2-(4-{1-[4-((2RS,4aRS,10bRS)-2-Hydroxy-8,9-dimethoxy-1,2,3,4,4a,10b-hexahydro-phenanthridin-6-yl)-phenyl]-methanoyl}-piperazin-1-yl)-N-pyridin-2-yl-acetamide]
4 | 0.955 to 8.71 nM | COC(=O)CN(C)C(=O)c1ccc(C2=NC3CCC(O)CC3c3cc(OC)c(OC)cc32)cc1 (centres unmarked) [Compound 5]
5 | 0.955 to 8.71 nM | COc1cc2c(cc1OC(F)F)[C@H]1C[C@H](O)CC[C@H]1N=C2c1ccc(C(=O)N2CCN(CCN(C)C)CC2)cc1 (racemic) [Compound 35, 1-{4-[(2RS,4aRS,10bRS)-9-(1,1-Difluoro-methoxy)-2-hydroxy-8-methoxy-1,2,3,4,4a,10b-hexahydro-phenanthridin-6-yl]-phenyl}-1-[4-(2-dimethylamino-ethyl)-piperazin-1-yl]-methanone]
6 | 0.955 to 8.71 nM | COc1cc2c(cc1OC)[C@H]1C[C@H](O)CC[C@H]1N=C2c1ccc(C(=O)N2CCN(CC(=O)N3CCOCC3)CC2)cc1 (racemic) [Compound 17, 2-(4-{1-[4-((2RS,4aRS,10bRS)-2-Hydroxy-8,9-dimethoxy-1,2,3,4,4a,10b-hexahydro-phenanthridin-6-yl)-phenyl]-methanoyl}-piperazin-1-yl)-1-morpholin-4-yl-ethanone]
7 | 0.955 to 8.71 nM | COc1cc2c(cc1OC)[C@H]1C[C@H](O)CC[C@H]1N=C2c1ccc(C(=O)N2CCN(CC(=O)N3CCCC3)CC2)cc1 (racemic) [Compound 12, 2-(4-{1-[4-((2RS,4aRS,10bRS)-2-Hydroxy-8,9-dimethoxy-1,2,3,4,4a,10b-hexahydro-phenanthridin-6-yl)-phenyl]-methanoyl}-piperazin-1-yl)-1-pyrrolidin-1-yl-ethanone]
8 | 0.955 to 8.71 nM | COc1cc2c(cc1OC)[C@H]1C[C@H](O)CC[C@H]1N=C2c1ccc(C(=O)NC2CC2)cc1 (racemic) [Compound 11, N-Cyclopropyl-4-((2RS,4aRS,10bRS)-2-hydroxy-8,9-dimethoxy-1,2,3,4,4a,10b-hexahydro-phenanthridin-6-yl)-benzamide]
9 | 0.955 to 8.71 nM | COc1cc2c(cc1OC(F)F)[C@H]1C[C@H](O)CC[C@H]1N=C2c1ccc(C(=O)NC2CC2)cc1 (racemic) [Compound 25, N-Cyclopropyl-4-[(2RS,4aRS,10bRS)-9-(1,1-difluoro-methoxy)-2-hydroxy8-methoxy-1,2,3,4,4a,10b-hexahydro-phenanthridin-6-yl]-benzamide]
10 | 0.955 to 8.71 nM | COc1cc2c(cc1OC)C1CC(O)CCC1N=C2c1ccc(C(=O)NCCN2CCOCC2)cc1 (centres unmarked) [Compound 1]
11 | 0.955 to 8.71 nM | CCN(CCOC)C(=O)c1ccc(C2=NC3CCC(O)CC3c3cc(OC)c(OC)cc32)cc1 (centres unmarked) [Compound 10]
12 | 0.955 to 8.71 nM | COc1cc2c(cc1OC(F)F)C1CC(O)CCC1N=C2c1ccc(C(=O)N2CCN(CC(=O)N3CCOCC3)CC2)cc1 (stereo not drawn) [Compound 32, 2-[4-(1-{4-[(2RS,4aRS,10bRS)-9-(1,1-Difluoro-methoxy)-2-hydroxy-8-methoxy-1,2,3,4,4a,10bhexahydro-phenanthridin-6-yl]-phenyl}-methanoyl)-piperazin-1-yl]-1-morpholin-4-yl-ethanone]
13 | 0.955 to 8.71 nM | COCCN(CCOC)C(=O)c1ccc(C2=N[C@@H]3CC[C@@H](O)C[C@@H]3c3cc(OC(F)F)c(OC)cc32)cc1 (racemic) [Compound 26, 4-[(2RS,4aRS,10bRS)-9-(1,1-Difluoro-methoxy)-2-hydroxy-8-methoxy-1,2,3,4,4a,10b-hexahydro-phenanthridin-6-yl]-N,N-bis(2-methoxy-ethyl)-benzamide]
14 | 0.955 to 8.71 nM | COc1cc2c(cc1OC)C1CC(O)CCC1N=C2c1ccc(C(=O)N2CCN(CC(=O)N(C)C)CC2)cc1 [Compound 16, 2-(4-{1-[4-((2R,4aR,10bR)-2-Hydroxy-8,9-dimethoxy-1,2,3,4,4a,10b-hexahydro-phenanthridin-6-yiyphenyl]-methanoyl}-piperazin-1-yl)-N,N-dimethyl-acetamide]
15 | 0.955 to 8.71 nM | COc1cc2c(cc1OC(F)F)C1CC(O)CCC1N=C2c1ccc(C(=O)N2CCN(CC(=O)N(C)C)CC2)cc1 (stereo not drawn) [Compound 34, 2-[4-(1-{4-[(2RS,4aRS,10bRS)-9-(1,1-Difluoro-methoxy)-2-hydroxy-8-methoxy-1,2,3,4,4a,10bhexahydro-phenanthridin-6-yl]-phenyl}-methanoyl)-piperazin-1-yl]-N,N-dimethyl-acetamide]
16 | 0.955 to 8.71 nM | COc1cc2c(cc1OC(F)F)[C@H]1C[C@H](O)CC[C@H]1N=C2c1ccc(C(=O)NCCN2CCOCC2)cc1 (racemic) [Compound 27, 4-[(2RS,4aRS,10bRS)-9-(1,1-Difluoro-methoxy)-2-hydroxy-8-methoxy-1,2,3,4,4a,10b-hexahydro-phenanthridin-6-yl]-N-(2-morpholin-4-yl-ethyl)-benzamide]
17 | 0.955 to 8.71 nM | COc1cc2c(cc1OC)C1CC(O)CCC1N=C2c1ccc(C(=O)N2CCN(c3ccncc3)CC2)cc1 (centres unmarked) [Compound 18]
18 | 0.955 to 8.71 nM | COc1cc2c(cc1OC)C1CC(O)CCC1N=C2c1ccc(C(=O)N2CCN(c3ccccn3)CC2)cc1 (centres unmarked) [Compound 8]
19 | 0.955 to 8.71 nM | COc1cc2c(cc1OC)[C@H]1C[C@H](O)CC[C@H]1N=C2c1ccc(C(=O)N(C)C)cc1 (racemic) [Compound 14, 4-((2RS,4aRS,10bRS)-2-Hydroxy-8,9-dimethoxy-1,2,3,4,4a,10b-hexahydro-phenanthridin-6-yl)-N,N-dimethyl-benzamide]
20 | 0.955 to 8.71 nM | COc1cc2c(cc1OC(F)F)[C@H]1C[C@H](O)CC[C@H]1N=C2c1ccc(C(=O)N2CCN(c3ccncc3)CC2)cc1 (racemic) [Compound 30, 1-{4-[(2RS,4aRS,10bRS)-9-(1,1-Difluoro-methoxy)-2-hydroxy-8-methoxy-1,2,3,4,4a,10b-hexahydro-phenanthridin-6-yl]-phenyl}-1-(4-pyridin-4-yl-piperazin-1-yl)-methanone]
21 | 0.955 to 8.71 nM | COc1cc2c(cc1OC)[C@H]1C[C@H](O)CC[C@H]1N=C2c1ccc(C(=O)NCCc2ccccn2)cc1 (racemic) [Compound 7, 4-((2RS,4aRS,10bRS)-2-Hydroxy-8,9-dimethoxy-1,2,3,4,4a,10b-hexahydro-phenanthridin-6-yl)-N-(2-pyridin-2-yl-ethyl)-benzamide]
22 | 0.955 to 8.71 nM | COc1cc2c(cc1OC)[C@H]1C[C@H](O)CC[C@H]1N=C2c1ccc(C(=O)N2CCOCC2)cc1 (racemic) [Compound 19, 1-[4-((2RS,4aRS,10bRS)-2-Hydroxy-8,9-dimethoxy-1,2,3,4,4a,10b-hexahydro-phenanthridin-6-yl)-phenyl]-1-morpholin-4-yl-methanone]
23 | 0.955 to 8.71 nM | COc1cc2c(cc1OC(F)F)[C@H]1C[C@H](O)CC[C@H]1N=C2c1ccc(C(=O)N2CCN(CCN3CCOCC3)CC2)cc1 (racemic) [Compound 29, 1-{4-[(2RS,4aRS,10bRS)-9-(1,1-Difluoro-methoxy)-2-hydroxy-8-methoxy-1,2,3,4,4a,10b-hexahydro-phenanthridin-6-yl]-phenyl}-1-[4(2-morpholin-4-yl-ethyl)-piperazin-1-yl]-methanone]
